Legend:
Format in all cases: in vivo
[1] = tested on: ryegrass, Italian (italian ryegrass, Lolium multiflorum); assay: Test A postemergence application, visual injury rating 0-100
Summary of the method: (§1)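 Plants in a loam and sand soil blend were treated with each test chemical, in a non-phytotoxic solvent system including surfactant, either sprayed on seeded soil before emergence or applied after emergence at the one- to two-leaf stage. Ten days later in the greenhouse, plants were compared with untreated controls and visually rated from 0 (no effect) to 100 (complete control).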

[2] = tested on: palmer (palmer amaranth, palmer pigweed, Amaranthus palmeri); assay: as above
Summary of the method: as §1

[3] = tested on: ragweed (common ragweed, Ambrosia artemisiifolia); assay: as above
Summary of the method: as §1

[4] = tested on: green foxtail (Setaria viridis); assay: as above
Summary of the method: as §1

[5] = tested on: oat, wild (wild oat, Avena fatua); assay: as above
Summary of the method: as §1

[6] = tested on: blackgrass (Alopecurus myosuroides); assay: as above
Summary of the method: as §1

[7] = tested on: kochia (Bassia scoparia); assay: as above
Summary of the method: as §1

[8] = tested on: soybean (Glycine max); assay: as above
Summary of the method: as §1

[9] = tested on: galium (catchweed bedstraw, Galium aparine); assay: as above
Summary of the method: as §1

[10] = tested on: wheat (Triticum aestivum); assay: as above
Summary of the method: as §1

[11] = tested on: horseweed (Erigeron canadensis); assay: as above
Summary of the method: as §1

[12] = tested on: corn (Zea mays); assay: as above
Summary of the method: as §1

[13] = tested on: barnyardgrass (Echinochloa crus-galli); assay: as above
Summary of the method: as §1

[14] = tested on: ryegrass, Italian (italian ryegrass, Lolium multiflorum); assay: Test A preemergence soil spray, visual injury rating 0-100; details: 10 days
Summary of the method: as §1

[15] = tested on: palmer (palmer amaranth, palmer pigweed, Amaranthus palmeri); assay: as above; details: 10 days
Summary of the method: as §1

[16] = tested on: ragweed (common ragweed, Ambrosia artemisiifolia); assay: as above; details: 10 days
Summary of the method: as §1

[17] = tested on: green foxtail (Setaria viridis); assay: as above; details: 10 days
Summary of the method: as §1

[18] = tested on: oat, wild (wild oat, Avena fatua); assay: as above; details: 10 days
Summary of the method: as §1

[19] = tested on: blackgrass (Alopecurus myosuroides); assay: as above; details: 10 days
Summary of the method: as §1

[20] = tested on: kochia (Bassia scoparia); assay: as above; details: 10 days
Summary of the method: as §1

[21] = tested on: soybean (Glycine max); assay: as above; details: 10 days
Summary of the method: as §1

[22] = tested on: wheat (Triticum aestivum); assay: as above; details: 10 days
Summary of the method: as §1

[23] = tested on: corn (Zea mays); assay: as above; details: 10 days
Summary of the method: as §1

[24] = tested on: barnyardgrass (Echinochloa crus-galli); assay: as above; details: 10 days
Summary of the method: as §1

[25] = tested on: barnyardgrass (Echinochloa crusgalli); assay: Test B flooded paddy test, visual plant response rating 0-100; details: 250 g ai/ha, Flood, applied to paddy water, evaluated after 13 days
Summary of the method: (§2)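 Plants were grown to the 2-leaf stage, then pots were flooded to 3 cm above the soil and compound was applied directly to the paddy water, with that depth kept throughout.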

[26] = tested on: rice (Oryza sativa); assay: as above; details: 250 g ai/ha, Flood, applied to paddy water, evaluated after 13 days
Summary of the method: as §2

[27] = tested on: sedge, umbrella (small-flower umbrella sedge, Cyperus difformis); assay: as above; details: 250 g ai/ha, Flood, applied to paddy water, evaluated after 13 days
Summary of the method: as §2

[28] = tested on: ducksalad (Heteranthera limosa); assay: as above; details: 250 g ai/ha, Flood, applied to paddy water, evaluated after 13 days
Summary of the method: as §2

[29] = 62 g ai/ha, postemergence, 10 days, 0 = no effect, 100 = complete control
[30] = Postemergence, 16 g ai/ha, greenhouse 10 days, 0 no effect, 100 complete control
[31] = 62 g ai/ha, 0 = no effect, 100 = complete control

CC1(C(=O)NC2CC=C(C(=O)O)C2)CN(c2cc(Cl)cc(Cl)c2)C(=O)O1 (stereo not shown) [Compound 157]
Ryegrass, Italian plant response rating (0-100) [1, 29]: 60 | Ryegrass, Italian plant response rating (0 to 100 scale) [1, 30]: 0 | Pigweed, Palmer plant response rating (0-100) [2, 29]: 50 | Pigweed, Palmer plant response rating (0 to 100 scale) [2, 30]: 0 | Ragweed plant response rating (0-100) [3, 29]: 30 | Ragweed plant response rating (0 to 100 scale) [3, 30]: 0 | Foxtail, Green plant response rating (0-100) [4, 29]: 10 | Foxtail, Green plant response rating (0 to 100 scale) [4, 30]: 0 | Oat, Wild plant response rating (0-100) [5, 29]: 0 | Oat, Wild plant response rating (0 to 100 scale) [5, 30]: 0 | Blackgrass plant response rating (0-100) [6, 29]: 30 | Blackgrass plant response rating (0 to 100 scale) [6, 30]: 0 | Kochia plant response rating (0-100) [7, 29]: 60 | Kochia plant response rating (0 to 100 scale) [7, 30]: 50 | Soybean plant response rating (0-100) [8, 29]: 60 | Soybean plant response rating (0 to 100 scale) [8, 30]: 40 | Galium plant response rating (0-100) [9, 29]: 70 | Galium plant response rating (0 to 100 scale) [9, 30]: 30 | Wheat plant response rating (0-100) [10, 29]: 30 | Wheat plant response rating (0 to 100 scale) [10, 30]: 0 | Horseweed plant response rating (0-100) [11, 29]: 0 | Horseweed plant response rating (0 to 100 scale) [11, 30]: 0 | Corn plant response rating (0-100) [12, 29]: 0 | Corn plant response rating (0 to 100 scale) [12, 30]: 0 | Barnyardgrass plant response rating (0-100) [13, 29]: 40 | Barnyardgrass plant response rating (0 to 100 scale) [13, 30]: 0 | Ryegrass, Italian plant response rating ([14]; 16 g ai/ha, 0 to 100 scale): 0 | Ryegrass, Italian plant response rating (0-100) [14, 31]: 0 | Pigweed, Palmer plant response rating ([15]; 16 g ai/ha, 0 to 100 scale): 0 | Pigweed, Palmer plant response rating (0-100) [15, 31]: 0 | Ragweed plant response rating ([16]; 16 g ai/ha, 0 to 100 scale): 0 | Ragweed plant response rating (0-100) [16, 31]: 0 | Foxtail, Green plant response rating ([17]; 16 g ai/ha, 0 to 100 scale): 0 | Foxtail, Green plant response rating (0-100) [17, 31]: 0 | Oat, Wild plant response rating ([18]; 16 g ai/ha, 0 to 100 scale): 0 | Oat, Wild plant response rating (0-100) [18, 31]: 0 | Blackgrass plant response rating ([19]; 16 g ai/ha, 0 to 100 scale): 0 | Blackgrass plant response rating (0-100) [19, 31]: 0 | Kochia plant response rating ([20]; 16 g ai/ha, 0 to 100 scale): 0 | Kochia plant response rating (0-100) [20, 31]: 0 | Soybean plant response rating ([21]; 16 g ai/ha, 0 to 100 scale): 0 | Soybean plant response rating (0-100) [21, 31]: 0 | Wheat plant response rating ([22]; 16 g ai/ha, 0 to 100 scale): 0 | Wheat plant response rating (0-100) [22, 31]: 0 | Corn plant response rating ([23]; 16 g ai/ha, 0 to 100 scale): 0 | Corn plant response rating (0-100) [23, 31]: 0 | Barnyardgrass plant response rating ([24]; 16 g ai/ha, 0 to 100 scale): 0 | Barnyardgrass plant response rating (0-100) [24, 31]: 30 | Plant response rating, Barnyardgrass (0 to 100 scale, 0 is no effect and 100 is complete control) [25]: 0 | Plant response rating, Rice (0 to 100 scale, 0 is no effect and 100 is complete control) [26]: 0 | Plant response rating, Sedge, Umbrella (0 to 100 scale, 0 is no effect and 100 is complete control) [27]: 0 | Plant response rating, Ducksalad (0 to 100 scale, 0 is no effect and 100 is complete control) [28]: 0

From patent US20260285850A1, “SUBSTITUTED OXAZOLIDINONES AND IMIDAZOLINONES AS HERBICIDES” (FMC CORPORATION, priority 2023, published 2026)
